# According to paper PMC9403545, “Structure based design of effective HtpG-derived vaccine antigens against M. tuberculosis” (Frontiers in Molecular Biosciences, 2022):
# pKd: −log10 of the molar value.
# Molecular target: T1, HtpGMtb (Mycobacterium tuberculosis, UniProt P9WMJ7)
# T1 construct: gene htpG; full-length wild type, recombinant in E. coli BL21(DE3), Ni-NTA and SEC, further ion exchange to remove nucleic acid; homodimer
# Assay: biochemical
# Format: binding
# T1 sequence (P9WMJ7 whole entry): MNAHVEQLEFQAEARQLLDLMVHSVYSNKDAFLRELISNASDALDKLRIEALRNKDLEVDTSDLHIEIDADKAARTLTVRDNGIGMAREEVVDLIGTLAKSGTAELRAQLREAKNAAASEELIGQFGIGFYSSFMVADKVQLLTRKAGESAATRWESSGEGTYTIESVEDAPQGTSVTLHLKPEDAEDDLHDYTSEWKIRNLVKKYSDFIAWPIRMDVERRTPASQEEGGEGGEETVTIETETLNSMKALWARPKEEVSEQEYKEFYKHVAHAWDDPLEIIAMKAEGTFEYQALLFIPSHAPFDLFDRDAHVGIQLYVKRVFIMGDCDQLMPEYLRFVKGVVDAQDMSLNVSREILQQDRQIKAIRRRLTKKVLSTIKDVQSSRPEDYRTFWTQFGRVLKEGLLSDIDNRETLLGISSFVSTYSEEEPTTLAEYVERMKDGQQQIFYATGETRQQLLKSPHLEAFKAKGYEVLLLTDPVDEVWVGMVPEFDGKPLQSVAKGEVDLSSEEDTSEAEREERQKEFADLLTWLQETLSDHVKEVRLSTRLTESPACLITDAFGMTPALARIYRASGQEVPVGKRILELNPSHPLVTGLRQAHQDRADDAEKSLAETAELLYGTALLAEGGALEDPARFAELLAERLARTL
row,Compound,pKd
1,Nc1ncnc2c1ncn2[C@@H]1O[C@H](COP(=O)(O)OP(=O)(O)O)[C@@H](O)[C@H]1O [ADP],4.47
2,Nc1ncnc2c1ncn2[C@@H]1O[C@H](COP(=O)(O)OP(=O)(O)NP(=O)(O)O)[C@@H](O)[C@H]1O [AMP-PNP],4.34
